Source: patent US6787552B2, “PPAR delta activators” (Nippon Chemiphar Co., Ltd., priority 2000, dated 2004)
Several values for one entry are separate records, joined by “and”; a condition that tells them apart may be missing. Identical values can stand only once.

Assays:
Assay type in all cases: cell-based
[1] = target: T1, PPARα (Homo sapiens, UniProt Q07869); test: PPARα transactivation activity (GAL4-hPPARα LBD / UASx4-TK-LUC reporter in CV-1 cells); conditions: for PPARα transactivation activity: a relative value (control = 100%): CV-1 cells, Table 25; for Emax: CV-1, in the manner as described in Example 9, Table 26, read-out: PPARα (PPAR activating power)
T1 construct: Receptor expression plasmid (GAL4-hPPARα, LBD GAL4-hPPARγ LBD, GAL4-hPPARδ LBD); expressed in transfected cells; host or cells: CV-1 cells
T1 sequence (Q07869 239-466 limits assumed): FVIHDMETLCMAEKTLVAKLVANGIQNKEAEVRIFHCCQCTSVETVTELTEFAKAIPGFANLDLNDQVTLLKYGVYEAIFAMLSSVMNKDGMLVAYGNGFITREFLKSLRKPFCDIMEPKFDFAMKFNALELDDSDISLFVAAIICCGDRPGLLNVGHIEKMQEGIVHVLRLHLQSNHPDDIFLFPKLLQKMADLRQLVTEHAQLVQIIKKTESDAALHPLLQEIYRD
Method: (§1) (1) Measurement of PPARα,γ,δ Transactivation Activity
(§2) PPARα,γ,δ transactivation activity of each compound [Examples 1-6 and known PPARδ agonist (L-16504: Berger, J., et al. (1999), J. Biol. Chem., 274:6718-6725)] was measured in the manner described below.
(§3) CV-1 was obtained from Tohoku University Aging Medical Laboratory, Medical Cell Collection Center. All test compounds were dissolved in dimethylsulfoxide (DMSO) to give a test sample of 0.1% concentration.
(§4) Receptor expression plasmid (GAL4-hPPARα, LBD GAL4-hPPARγ LBD, GAL4-hPPARδ LBD), Reporter plasmid (UASx4-TK-LUC), and β-galactosidase expression plasmid (βGAL) similar to Kliewer, S. A., et al., ((1992) Nature, 358:771-774) were employed.
(§5) CV-1 cells were seeded in 24 well culture plates at 2×10^5 cells per well, and cultured for 24 hours using 4%-fetal bovine serum(FBS)-added OPTI-MEM I Reduced Serum Medium (Life Technologies, 500 μL/well). Subsequently, the cells were washed with non serum-added OPTI-MEM. To the washed cells were added DNA-containing solution [the following components were contained in the one well solution (250 μl): 0.03 μg of GAL4-hPPARδ LBD, 0.25 μg of UASx4-TK-LUC, 0.35 μg of βGAL, and 2 μL of lipofection reagent, DMRIE-C (Life Technologies). These components were dissolved in OPTI-MEM and allowed to stand for 30 minutes at room temperature]. The cells were incubated for 5 hours at 37° C.
(§6) The cells were then incubated for 40 hours in 500 μL of fresh OPTI-MEM containing 4% FBS and the test compound (dissolved in 100% DMSO to reach a final concentration: 10^−4M or 10^−5M).
(§7) The culture medium was removed and the cells were washed with PBS twice. Cell lysates were produced using a solubilizing buffer (25 mM Tris-PO4 (pH 7.8), 15%v/v glycerol, 2% CHAPS, 1% Lecithin, 1% BSA, 4 mM EGTA (pH 8.0), 8 mM MgCl2, 1 mM DTT). A portion (20 μL) of the solution was transferred onto a 96-well plate. Subsequently, 100 μL of luciferase substrate solution (Piccagene: available from Nippon Gene Co., Ltd.) was added, and a luminous intensity per one sec. (luciferase activity) was measured by means of MLR-100 type Microluminoreader (available from Corona Electrics Co., Ltd.). Further, the activity caused by […] incorporation which was incorporated into the cells simultaneously with the incorporation of the luciferase gene was measured, for correcting variation of luciferase activity by the addition of the compound, utilizing the transfection efficiency of the incorporated gene. β-Galactosidase activity was measured by the following method: 50 μL of the solubilized sample was placed on another 96-well plate; 10 μL of ONPG (2-nitrophenyl-β-galactopyranoside) solution was added; incubation was carried out for 5 minutes at room temperature; 50 μL of a reaction stopping solution (1M sodium carbonate solution) was added; and the absorbance at 414 nm was measured.

[2] = target: T2, PPARδ (Homo sapiens, UniProt Q03181); test: PPARδ transactivation activity (GAL4-hPPARδ LBD / UASx4-TK-LUC reporter in CV-1 cells); conditions: for PPARδ transactivation activity: a relative value (control = 100%): compound at 10^−5 M, Table 25; for activity to PPARδ relative to activity to PPARα and γ (selectivity): GAL4-hPPAR LBD reporter, relative activities vs control reagents; for Emax: CV-1, 40 h, in the manner as described in Example 9, Table 26, read-out: PPARδ (PPAR activating power)
T2 construct: A chimeric receptor expression plasmid (GAL4-hPPARδ LBD); expressed in transfected cells; host or cells: CV-1 cells
T2 sequence (Q03181 211-439 limits assumed): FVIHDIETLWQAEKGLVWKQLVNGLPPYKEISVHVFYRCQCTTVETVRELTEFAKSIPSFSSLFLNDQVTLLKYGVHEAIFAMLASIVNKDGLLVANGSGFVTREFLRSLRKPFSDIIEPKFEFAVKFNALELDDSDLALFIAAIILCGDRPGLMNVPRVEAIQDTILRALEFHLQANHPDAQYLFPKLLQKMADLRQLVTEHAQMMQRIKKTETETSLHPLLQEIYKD
Method: A chimeric receptor expression plasmid (GAL4-hPPARδ LBD), a reporter plasmid (UASx4-TK-LUC) and β-galactosidase (β-GAL) are transfected into CV-1 cells by utilizing a lipofection reagent DMRIE-C (Life Technologies).
as §1
CV-1 was obtained from Tohoku University Aging Medical Laboratory, Medical Cell Collection Center.
as §5, §6, §7

[3] = target: T3, PPARγ (Homo sapiens, UniProt P37231); test: PPARγ transactivation activity (GAL4-hPPARγ LBD / UASx4-TK-LUC reporter in CV-1 cells); conditions: for PPARγ transactivation activity: a relative value (control = 100%): compound at 10^−5 M, CV-1 cells, Table 25; for Emax: CV-1, in the manner as described in Example 9, Table 26, read-out: PPARγ (PPAR activating power)
T3 construct: Receptor expression plasmid (GAL4-hPPARα, LBD GAL4-hPPARγ LBD, GAL4-hPPARδ LBD); expressed in transfected cells; host or cells: CV-1 cells
T3 sequence (P37231 238-503 limits assumed): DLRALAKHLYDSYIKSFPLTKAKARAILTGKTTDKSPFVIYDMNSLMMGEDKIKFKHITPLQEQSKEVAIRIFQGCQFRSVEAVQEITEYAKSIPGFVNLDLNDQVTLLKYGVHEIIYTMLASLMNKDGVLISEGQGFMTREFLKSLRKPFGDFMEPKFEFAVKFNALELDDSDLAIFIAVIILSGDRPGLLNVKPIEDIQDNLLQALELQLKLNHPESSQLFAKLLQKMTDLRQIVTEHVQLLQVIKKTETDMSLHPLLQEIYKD
Method: In the same manner, relative ligand activities to PPARδ and γ transactivation activitis are calculated (see the below-mentioned Example 9).
as §1, §2, §3, §4, §5, §6, §7

| SMILES | PPARα transactivation activity: a relative value (control = 100%) ([1]; compound at 10^−5 M) | PPARδ transactivation activity: a relative value (control = 100%) ([2]; CV-1 cells) | PPARγ transactivation activity: a relative value (control = 100%) [3] | Emax [1] | Emax [2] | Emax [3] | further results |
| --- | --- | --- | --- | --- | --- | --- | --- |
| CC(C)c1oc(-c2ccccc2Cl)nc1CCC(=NO)c1ccc(OC(C)(C)C(=O)O)cc1 [Example 3, 2-[4-[3-[2-(2-Chlorophenyl)-5-isopropyl-4-oxazolyl](1-hydroxyimino)propyl]phenyloxy]-2-methyl-propionic acid] | 10% | 19% | 16% | – | – | – | – |
| CC(C)c1oc(-c2ccccc2Cl)nc1CC=Cc1ccc(OC(C)(C)C(=O)O)cc1 [Example 5, 2-[4-[3-[2-(2-Chlorophenyl)-5-isopropyl-4-oxazolyl]-1-propenyl]phenyloxy]-2-methylpropionic acid] | 52 ± 7% | 114 ± 1% | 36 ± 3% | – | – | – | activity to PPARδ relative to activity to PPARα and γ (selectivity) ([2]; CV-1 cells): selectively higher |
| CC(C)c1oc(-c2ccc(-c3ccccc3)cc2Cl)nc1CCC(=O)c1ccc(OC(C)(C)C(=O)O)cc1 [Example 7-14, 2-[4-[3-[2-(3-Chloro-4-biphenylyl)-5-isopropyl-4-oxazolyl]propionyl]phenyloxy]-2-methylpropionic acid] | – | – | – | 2% | 53% | 18% | – |
| CCCc1c(OCCCOc2ccc(OCC(=O)O)cc2)ccc(C(C)=O)c1O [Example L-165041, reference compound] | – | – | – | 2 ± 1% | – | 1 ± 0.03% | – |
| CC(C)c1oc(-c2ccccc2Cl)nc1CCC(=O)c1ccc(OC(C)(C)C(=O)O)cc1 [Example 1, 2-[4-[3-[2-(2-Chlorophenyl)-5-isopropyl-4-oxazolyl]propionyl]phenyloxy]-2-methylpropionic acid] | 9 ± 1% | 80 ± 10% | 27 ± 3% | – | – | – | activity to PPARδ relative to activity to PPARα and γ (selectivity) ([2]; CV-1 cells): selectively higher |
| CC(C)c1oc(-c2ccccc2Cl)nc1CCCc1ccc(OC(C)(C)C(=O)O)cc1 [Example 6, 2-[4-[3-[2-(2-Chlorophenyl)-5-isopropyl-4-oxazolyl]propyl]phenyloxy]-2-methylpropionic acid] | 98 ± 6% | 109 ± 10% | 93 ± 1% | – | – | – | – |
| CC(C)c1oc(-c2ccc(Br)cc2Cl)nc1CCC(=O)c1ccc(OC(C)(C)C(=O)O)cc1 [Example 7-13, 2-[4-[3-[2-(4-Bromo-2-chlorophenyl)-5-isopropyl-4-oxazolyl]propionyl]phenyloxy]-2-methylpropionic acid] | – | – | – | 1% | 81% | 3% | – |
| CC(C)c1oc(-c2cccc(Cl)c2O)nc1CCC(=O)c1ccc(OC(C)(C)C(=O)O)cc1 [Example 7-12, 2-[4-[3-[2-(3-Chloro-2-hydroxyphenyl)-5-isopropyl-4-oxazolyl]propionyl]phenyloxy]-2-methylpropionic acid] | – | – | – | 8 ± 1% | 79 ± 2% | 4% | activity to PPARδ relative to activity to PPARα and γ (selectivity) ([2]; CV-1 cells): selectively higher |
| CC(C)c1oc(-c2ccc(-c3ccccc3)cc2)nc1CCC(=O)c1ccc(OC(C)(C)C(=O)O)cc1 [Example 7-8, 2-[4-[3-[2-(4-Biphenylyl)-5-isopropyl-4-oxazolyl]-propionyl]phenyloxy]-2-methylpropionic acid] | – | – | – | 1% | 58% | 26% | – |
| CCCc1oc(-c2ccc(Cl)cc2)nc1CCC(=O)c1ccc(OC(C)(C)C(=O)O)cc1 [Example 2, 2-[4-[3-[2-(4-Chlorophenyl)-5-propyl-4-oxazolyl]propionyl]phenyloxy]-2-methylpropionic acid] | 75 ± 4% | 93 ± 4% | 51 ± 3% | – | – | – | – |
| CC(C)c1oc(-c2cc3ccccc3cc2O)nc1CCC(=O)c1ccc(OC(C)(C)C(=O)O)cc1 [Example 7-11, 2-[4-[3-[2-(3-Hydroxy-2-naphthyl)-5-isopropyl-4-oxazolyl]propionyl]phenyloxy]-2-methylpropionic acid] | – | – | – | 29 ± 3% | 85 ± 1% | 18 ± 4% | – |
| CC(C)c1oc(-c2ccccc2Cl)nc1CCC(O)c1ccc(OC(C)(C)C(=O)O)cc1 (stereo not shown) [Example 4, 2-[4-[3-[2-(2-Chlorophenyl)-5-isopropyl-4-oxazolyl]-1-hydroxypropyl]phenyloxy]-2-methylpropionic acid] | 35% | 23% | 26% | – | – | – | – |
| CCC(C)(Oc1ccc(C(=O)CCc2nc(-c3ccc(Cl)cc3Cl)oc2C(C)C)cc1)C(=O)O (stereo not shown) [Example 7-5, 2-[4-[3-[2-(2,4-Dichlorophenyl)-5-isopropyl-4-oxazolyl]propionyl]phenyloxy]-2-methylbutyric acid] | – | – | – | 1% | 58 ± 14% | 2% | – |
| CC(C)c1oc(-c2cccc(Cl)c2Cl)nc1CCC(=O)c1ccc(OC(C)(C)C(=O)O)cc1 [Example 7-6, 2-[4-[3-[2-(2,3-Dichlorophenyl)-5-isopropyl-4-oxazolyl]propionyl]phenyloxy]-2-methylpropionic acid] | – | – | – | 8% | 96 ± 13% | 19% | PPARδ activating effect (transactivation activity) as compared with L-165041 ([2]; CV-1 cells, GAL4-hPPARδ LBD, 40 hours incubation, luciferase activity with 10^-4 M L-165041 set to 100%): same or higher |
| CC(C)c1oc(-c2ccc3ccccc3c2O)nc1CCC(=O)c1ccc(OC(C)(C)C(=O)O)cc1 [Example 7-9, 2-[4-[3-[2-(1-Hydroxy-2-naphthyl)-5-isopropyl-4-oxazolyl]propionyl]phenyloxy]-2-methylpropionic acid] | – | – | – | 8% | 80 ± 5% | 5 ± 1% | – |
| Cc1nc(-c2ccc(C(F)(F)F)cc2)sc1CCC(=O)c1ccc(OC(C)(C)C(=O)O)cc1 [Example 8-1, 2-[4-[3-[2-[(4-Trifluoromethyl)phenyl]-4-methyl-5-thiazolyl]propionyl]phenyloxy]-2-methylpropionic acid] | – | – | – | – | – | – | PPARα transactivation activity: a relative value at 10^−5 M (control = 100%) ([1]; compound at 10^−5 M, control WY-14643 (10^−4M), Table 27): 129% and 126% and 120% and 166% |
